Test results reported in patent publication US20240382448A1, “METHODS FOR TREATING CORONAVIRUS INFECTION” (priority 2021, published 2024).
Like-named read-outs stand apart in the source and are kept apart here.

Legend:
[1] = tested on: SARS-CoV-2 (isolate USA WA1/2020); format: cell-based; conditions: Calu3 cells, 2 h pretreatment, MOI=0.5, 48 h post-infection, compared to DMSO control
[2] = tested on: Calu3 (ATCC, HTB-55) cells; conditions: average of three replicates, (sample well/aggregated DMSOavg)*100

SMILES	% Infection ([1]; 0.02 μM)	% Infection ([1]; 0.07 μM)	% Infection ([1]; 0.21 μM)	% Infection ([1]; 0.62 μM)	% Infection ([1]; 1.85 μM)	% Infection ([1]; 5.56 μM)	% Infection ([1]; 16.67 μM)	% Infection ([1]; 50.00 μM)	Viability ([2]; 0.02 μM)	Viability ([2]; 0.07 μM)	Viability ([2]; 0.21 μM)	Viability ([2]; 0.62 μM)	Viability ([2]; 1.85 μM)	Viability ([2]; 5.56 μM)	Viability ([2]; 16.67 μM)	Viability ([2]; 50.00 μM)
C[C@H]1[C@H](OC(=O)CCC(=O)O)O[C@@H]2O[C@@]3(C)CC[C@H]4[C@H](C)CC[C@@H]1[C@@]24OO3 [Artesunate]	110.9%	90.0%	80.7%	44.7%	18.0%	14.7%	16.1%	4.7%	95.4	102.6	100.5	97.7	95.1	92.9	91.1	78.3
C[C@H]1[C@@H](O)O[C@@H]2O[C@@]3(C)CC[C@H]4[C@H](C)CC[C@@H]1[C@@]24OO3 [Dihydroartemisinin]	76.6%	103.6%	73.6%	23.0%	13.5%	7.0%	12.8%	2.0%	–	–	–	–	–	–	–	–
COc1cc(-c2oc3cc(O)cc(O)c3c(=O)c2O)ccc1O [Isorhamnetin]	93.6%	79.5%	103.8%	60.4%	83.8%	5.3%	7.9%	–	99.6	99.6	99.4	98.8	101.0	99.8	83.7	73.0
